In the supplement of paper PMC10307832:

How the values were obtained:
Test in all cases: relative viability (nuclei count vs DMSO), 5 days (fraction); higher = more cells survive
QS11 + Linsitinib = compound: C1CC2=C(C1)C=C(C=C2)OC3=NC(=C4C(=N3)N(C=N4)CC5=CC=C(C=C5)C6=CC=CC=C6)N[C@@H](CC7=CC=CC=C7)CO [QS11] + C[C@]1(O)C[C@@H](c2nc(-c3ccc4ccc(-c5ccccc5)nc4c3)c3c(N)nccn32)C1 [Linsitinib] (partner 1 µM)
How it was run: (§1)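 One day after seeding in 1536-well plates, lung cancer cell lines were dosed by pin tool. Dosing was either single-drug or a fixed anchor-drug dose plus five library-drug doses (not always all listed) in √10 steps. After 5 days, nuclei were stained in one fix-and-stain step and counted on 4× images, and relative viability is the nuclei count of treated wells over that of vehicle wells, given as the median of duplicate plates.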

QS11 + Decitabine = compound: C1CC2=C(C1)C=C(C=C2)OC3=NC(=C4C(=N3)N(C=N4)CC5=CC=C(C=C5)C6=CC=CC=C6)N[C@@H](CC7=CC=CC=C7)CO [QS11] + Nc1ncn([C@H]2C[C@H](O)[C@@H](CO)O2)c(=O)n1 [Decitabine] (partner 2 µM)
How it was run: as §1

[1] = compound: C[As](C)SC[C@H](NC(=O)CC[C@H](N)C(=O)O)C(=O)NCC(=O)O [Darinaparsin] + CC(C)C[C@H](NC(=O)[C@H](Cc1ccccc1)NC(=O)c1cnccn1)B(O)O [Bortezomib] (partner 0.002 µM)
How it was run: as §1

Darinaparsin + Lapatinib = compound: C[As](C)SC[C@H](NC(=O)CC[C@H](N)C(=O)O)C(=O)NCC(=O)O [Darinaparsin] + CS(=O)(=O)CCNCc1ccc(-c2ccc3ncnc(Nc4ccc(OCc5cccc(F)c5)c(Cl)c4)c3c2)o1 [Lapatinib] (partner 2 µM)
How it was run: as §1

Cell Line	relative viability (QS11 + Linsitinib; first compound 0.08 µM)	relative viability (QS11 + Linsitinib; first compound 0.253 µM)	relative viability (QS11 + Linsitinib; first compound 0.8 µM)	relative viability (QS11 + Linsitinib; first compound 2.53 µM)	relative viability (QS11 + Linsitinib; first compound 8 µM)	relative viability (QS11 + Decitabine; first compound 0.08 µM)	relative viability (QS11 + Decitabine; first compound 0.253 µM)	relative viability (QS11 + Decitabine; first compound 0.8 µM)	relative viability (QS11 + Decitabine; first compound 2.53 µM)	relative viability (QS11 + Decitabine; first compound 8 µM)	relative viability ([1]; first compound 0.08 µM)	relative viability ([1]; first compound 0.8 µM)	relative viability ([1]; first compound 2.53 µM)	relative viability ([1]; first compound 8 µM)	relative viability (Darinaparsin + Lapatinib; first compound 0.08 µM)	relative viability (Darinaparsin + Lapatinib; first compound 0.8 µM)	relative viability (Darinaparsin + Lapatinib; first compound 2.53 µM)	relative viability (Darinaparsin + Lapatinib; first compound 8 µM)
NCI-H647	1.12	1.21	1.17	1.21	1.23	0.391	0.44	0.349	0.374	0.309	1.79	1.17	0.802	1.17	1.28	0.926	0.833	1.42
A-427	1.12	1.1	–	1.14	1.09	0.523	0.561	–	0.613	0.674	1.05	0.977	0.954	1.08	1.08	1.06	1.04	1.22
NCI-H1915	1.05	1.14	–	1.16	1.03	0.248	0.266	–	0.267	0.287	1.08	1.03	0.844	1.25	0.996	0.888	0.932	1.18
NCI-H1355	0.762	0.791	0.671	0.84	0.712	0.34	0.31	0.333	0.349	0.346	1.38	1.13	1.19	1.36	1.11	0.845	0.893	1.17
HCC-15	0.965	0.993	–	0.857	0.841	0.697	0.737	0.573	0.586	0.525	1.25	1.06	0.863	1.28	1.04	0.76	0.81	1.11
HCC-78	0.517	0.528	0.463	0.579	0.514	0.687	0.772	0.662	0.797	0.719	0.464	0.59	0.482	0.55	0.76	0.58	0.704	0.885
NCI-H23	0.624	0.528	0.561	0.477	0.404	0.282	0.305	0.311	0.292	0.317	1.17	1.19	0.795	1.14	1.54	0.999	1.22	1.38
NCI-H838	1.07	0.879	0.7	0.837	0.851	0.494	0.483	0.43	0.422	0.411	0.976	0.766	0.679	0.811	1.23	0.835	0.831	1.32
COR-L23	0.938	1.01	0.767	0.784	0.625	0.44	0.433	0.443	0.357	0.302	1.64	0.995	0.77	1.17	1.41	0.811	0.716	1.16
ABC-1	0.955	0.646	0.88	0.801	0.929	0.946	1.04	0.907	1.12	0.949	0.256	0.443	0.331	0.234	1.11	1.18	1.16	1.47
SW 1573	0.837	0.729	0.824	0.817	0.696	0.548	0.612	0.558	0.475	0.388	1.02	1.01	1.05	1.29	1.1	1.1	1.09	1.22
HARA	0.965	1.02	–	0.912	1.19	0.508	–	0.36	0.605	0.389	1.49	1.12	1.06	1.25	0.77	0.692	0.649	0.755
NCI-H1755	1.07	0.577	0.595	0.814	0.871	0.625	0.715	0.535	0.685	0.671	1.04	0.94	0.915	1.18	1.1	0.981	1.01	1.46
NCI-H460	0.874	0.976	0.725	0.479	0.073	0.578	0.477	0.298	0.503	0.382	–	1.11	0.703	1.84	1.03	1.3	0.731	–
NCI-H3122	1	1.17	0.919	1.17	0.842	0.484	0.554	–	0.487	0.556	1.04	1.02	1.08	1.13	1.16	0.986	1.03	1.14
COR-L 105	0.964	0.706	0.929	0.732	0.883	0.747	0.633	0.731	0.639	0.599	0.944	0.78	–	0.636	0.388	0.388	–	0.349
NCI-H2087	1.01	1.15	0.845	0.655	0.708	0.287	0.325	0.252	0.305	0.299	1.02	0.944	0.948	1.13	1.29	1.02	0.951	0.997
NCI-H1792	–	0.559	0.43	0.537	0.68	–	0.536	0.518	0.498	0.58	1.69	1.03	0.652	1.03	1.26	0.83	0.696	0.927
